Biological target: T1, hyaluronidase of bovine origin (Bos taurus, UniProt Q2YDK3)
T1 sequence (Q2YDK3 36-553): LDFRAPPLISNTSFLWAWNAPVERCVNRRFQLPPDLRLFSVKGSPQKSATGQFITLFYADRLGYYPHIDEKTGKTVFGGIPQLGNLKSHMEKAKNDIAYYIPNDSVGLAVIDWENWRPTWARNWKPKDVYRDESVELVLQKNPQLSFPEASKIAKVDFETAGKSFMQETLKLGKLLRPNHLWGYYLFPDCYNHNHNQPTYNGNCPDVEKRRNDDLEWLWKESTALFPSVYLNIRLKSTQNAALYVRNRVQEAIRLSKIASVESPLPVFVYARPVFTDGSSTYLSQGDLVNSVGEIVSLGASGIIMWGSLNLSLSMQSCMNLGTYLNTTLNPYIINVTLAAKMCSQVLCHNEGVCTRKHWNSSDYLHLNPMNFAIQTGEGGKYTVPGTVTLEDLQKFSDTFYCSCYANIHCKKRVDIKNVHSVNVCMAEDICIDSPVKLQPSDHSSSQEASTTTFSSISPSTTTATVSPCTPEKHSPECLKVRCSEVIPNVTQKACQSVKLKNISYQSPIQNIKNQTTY
Experiment: Inhibitory effect on hyaluronidase activity of bovine origin (turbidimetry at 600 nm)
Assay type: biochemical
Conditions: GLZ pre-incubated for 20 minutes at 37° C. with the enzyme
Protocol: Determination of the IC50 of GLZ, with or without Pre-Incubation at 37° C.:
GLZ, at various concentrations, is or is not pre-incubated for 20 minutes at 37° C. in the presence of the enzyme. The enzyme reaction is triggered by adding the hyaluronic acid solution (time T0). After incubation for 20 minutes, the non-hydrolyzed hyaluronic acid is precipitated by adding acidic bovine albumin solution.
In order to verify that the pre-incubation step has no effect on the stability of the hyaluronidase, an aliquot of a solution of the enzyme is placed at 37° C. for 20 minutes. Another aliquot is conserved in an ice bath for 19 minutes, and is then incubated at 37° C. for 1 minute. A solution of hyaluronic acid is then added to each aliquot (T0). After incubation for 15, or 45 minutes, the non-hydrolyzed hyaluronic acid is precipitated by addition of acidic bovine albumin solution.
Measurement of the Hyaluronidase Activity of Bovine Origin:
After the precipitation step, the turbidimetry of the solutions is determined on a spectrophotometer at a wavelength of 600 nm. The optical density (OD) of these solutions is subtracted from the OD of a control solution of hyaluronic acid (of the same concentration) not hydrolyzed by the enzyme. This difference in OD, which is inversely proportional to the concentration of hyaluronic acid, is used to measure the activity of the hyaluronidase.

Question: With `CC1(C)[C@@H](O[C@H]2O[C@H](C(=O)O)[C@@H](O)[C@H](O)[C@H]2O[C@@H]2O[C@H](C(=O)O)[C@@H](O)[C@H](O)[C@H]2O)CC[C@]2(C)[C@H]3C(=O)C=C4[C@@H]5C[C@@](C)(C(=O)O)CC[C@]5(C)CC[C@@]4(C)[C@]3(C)CC[C@@H]12` [GLZ, glycyrrhizin] as the molecule, how does the IC50 read?
Answer: The IC50 was 350 µM.

Source: patent publication US9452126B2, “Pharmaceutical/cosmetic compositions comprising hyaluronic acid and treatment of dermatological conditions therewith” (Galderma Research & Development, priority 2005, dated 2016)
